≈ marks a conversion by molar mass, not a printed value. Read-outs that look alike come from different tables or passages of the source. Square brackets hold non-standard residues; d marks the D form. Ends that are not written are not given here. Peptide text beside a SMILES is read from it. * marks the point of attachment. Gu = N-terminal guanidylation, N=C(N)*
Experiments:
HeLa cells [1] = tested on: HeLa cells; parameters: method as in PMID 26114809; conditions: read-out: IC50 against HeLa cells; cited from earlier work
HeLa cells [2] = type: cell-based, human; conditions: 24 h
Description: (§1) Cell viability assays were performed against HeLa and A549 cells. Cells were seeded in Corning 96-well microplates at 2 × 10^3 cells/well and 5 × 10^3 cells/well and incubated for 24 h at 37 °C. Then, cells were treated with peptides dissolved in Dulbecco’s Modified Eagle’s Medium for 24 h; peptide concentration range 0.1–100 µM. The peptide solution was then removed, and fresh medium was added to the cells. Finally, 50 µL of activated-XTT solution was added and incubated for 4 h at 37 °C. A PowerWave X reader (BioTek, Winooski, VT, USA) was used to measure absorbance at 450 nm. Cell viability was calculated through the ratio of the absorbance of peptide-treated cells over the absorbance of untreated cells. Triplicates were run for each experiment.

A549 cells = type: cell-based, human; conditions: 24 h
Description: as §1

human erythrocytes = experiment: Hemolysis assay; type: cell-based; conditions: red cells of human, 4 h
Description: Commercially available human blood (IWB1K2E10ML, Innovative Research Inc., Novi, MI, USA) was used to produce a 50% haematocrit solution by mixing at 1:1 with PBS 1× (P5493, 1 L, Sigma, St. Louis, MO, USA). Three consecutive PBS 1× washes plus centrifugation at 2600 rpm for 10 min steps were performed. Finally, a 2% erythrocyte solution was prepared in PBS 1× and chilled on ice until used. Polypropylene plates were filled with 50 µL PBS 1× per well for the samples and 50 µL 2% Triton X-100 (TX-100, 9002-93-1, 100 mL, Sigma, St. Louis, MO, USA) for the hemolysis controls. A solution at 4× final concentration of the assay of each peptide was prepared in PBS and 50 µL were added to the first column of each plate, followed by serial dilutions in the microplate. Then, 50 µL of the 2% erythrocyte solution was added to each plate. […] controls consisted in a 1:1 mix of PBS 1× and erythrocytes at 2%. Plates were incubated at 37 °C for 4 h and then centrifuged at 1500 rpm for 5 min. Eighty µL were extracted from the supernatant of each well carefully and transferred to a polystyrene flat bottom plate for reading and read at 450 nm in an Epoch microplate spectrophotometer (Epoch™, BioTek, Winooski, VT, USA).
The therapeutic index is a widely accepted parameter to represent the specificity of antimicrobial peptides for prokaryotic versus eukaryotic cells. It is calculated by the ratio of HC50 (hemolytic activity) and MIC (antimicrobial activity); thus, larger values of therapeutic index indicate greater specificity for prokaryotic cells.

[3] = In vivo toxicity study, topical; parameters: species or system BALB/C mice; conditions: for mice final weight (median ± SD): after 7 days of observation after the treatment; for dermal responses and body weight loss / indicative signs of acute toxicity: healthy female BALB/C mice; for dermal responses and body weight loss: during the application; for indicative signs of acute toxicity: topical, efficacy dosage, 7 days observation
Description: Immunocompetent female BALB/C mice weighing 20 g (7–9 weeks old) were used (Charles River laboratories, St-Germain-Nuelles, France). Animals were murine pathogen-free and were assessed for genetic authenticity. The study followed the Guide for the Care and Use of Laboratory Animals. The experiments followed the 2010/63/EU directive on the protection of animals used for scientific research. Experiments were approved by the Committee on the Ethics of Animal Experiments of the Virgen del Rocío University Hospital and the Andalusian Ministry of Agricultura, Pesca, Agua y Desarrollo Rural, Junta de Andalucía, Sevilla, Spain (11-09-15-322).
CAP-18 and D-CAP-18 peptides were evaluated in five healthy female BALB/C mice at the dosage and regimen schedule to be used in the efficacy studies. The following indicative signs of acute toxicity were assessed during seven days: reduced water (dehydration)/food intake, isolation, self-mutilation, tremors/spasms, dyspnea, physical activity (increased/reduced), chromo-dacryorrhea, dermal responses, including erythema/oedema/redness/discoloration/necrosis), muscle stiffness, piloerection, teeth grinding, and weight loss.

[4] = tested on: P. aeruginosa Strain ATCC 121110; type: cell-based, Pseudomonas aeruginosa
Description: (§2) The antimicrobial activity of the peptides was tested against a collection of P. aeruginosa, selected by their resistance or susceptibility to colistin and/or classified as MDR strains. The origin of the strains was either clinical, relevant to the current clinical situation, or commercial strains belonging to the American Type Culture Collection (ATCC, Manassas, VA, USA), which complemented the collection for comparison and control. For the initial activity screening of the 17 peptides, we tested them against P. aeruginosa ATCC strains 1211007 and 1211101. Both strains are multidrug-resistant; however, the key difference is that strain 1211007 is susceptible to colistin, whereas strain 1211101 is resistant to colistin.
(§3) Minimum Inhibitory Concentration (MIC) of the antimicrobial agents against bacterial strains was obtained through broth microdilution assays following a protocol based on the Clinical & Laboratory Standards Institute’s guidelines. Modifications regarding microplate material and broth were included when testing the peptides’ activity and are detailed below. Colistin MICs were obtained following recommendations of the joint CLSI-EUCAST Polymyxin Breakpoints Working Group using Cation Adjusted Mueller-Hinton Broth (90922, 500 g Sigma-Aldrich®, St. Louis, MO, USA), and strains Escherichia coli 13846 (mcr-1 positive) and P. aeruginosa ATCC 27853 were used as quality controls in all assays. Bacteria were cultured in Columbia Agar plates (Columbia Agar with 5% Sheep Blood 90 mm Stacker plates, Becton Dickinson, Franklin Lakes, NJ, USA) and incubated overnight at 37 °C. Polypropylene round-bottomed 96-well plates (-96-well Polypropylene Storage Microplates, 267334, Thermo Fischer Scientific, Waltham, MA, USA) were used to prevent peptide binding to plate walls. AST broth (BD Phoenix™ AST broth, 8 mL, 246003, Becton Dickinson, Franklin Lakes, NJ, USA) was used when testing the peptides’ activity. […] Three biological and technical replicates were performed per strain.

[5] = tested on: P. aeruginosa strain panel; type: cell-based, Pseudomonas aeruginosa; conditions: strain panel
Description: as §2, §3

[6] = tested on: Colistin Susceptible P. aeruginosa; type: cell-based, Pseudomonas aeruginosa; conditions: Colistin Susceptible
Description: as §2, §3

[7] = tested on: Colistin-Resistant P. aeruginosa; type: cell-based, Pseudomonas aeruginosa; conditions: Colistin-Resistant
Description: as §2, §3

[8] = tested on: P. aeruginosa Strain 121007; type: cell-based, Pseudomonas aeruginosa
Description: as §2, §3

[9] = Strain ATCC 121110, value in brackets
[10] = Strain 121007, value in brackets

H-INLKALAALAKKIL-CH2CH2NH2
IC50 (HeLa cells [1]): 5 µM

GLRKRLRKFRNKIKEKLKKIGQKIQGLLPKLAPRTDY [CAP-18]
IC50 (HeLa cells [2]): 9.12 µM | IC50 (A549 cells): 0.87 µM | IC50 (human erythrocytes): 35.7 µM | mice final weight (median ± SD) [3]: 19.1 ± 0.55 grams | dermal responses and body weight loss [3]: no dermal responses, including erythema/oedema, nor body weight loss were observed | indicative signs of acute toxicity [3]: None of the 11 indicative signs of acute toxicity were observed | MIC ([4]; ATCC 121110): < 0.125 µg/mL | MIC50 [5]: 0.5 µg/mL | MIC90 [5]: 4 µg/mL | MIC [6]: 8 µg/mL | MIC [7]: 4 µg/mL

Gu-INLKALAALAKKIL-NH2 (SMILES CC[C@H](C)[C@H](NC(=N)N)C(=O)N[C@@H](CC(N)=O)C(=O)N[C@@H](CC(C)C)C(=O)N[C@@H](CCCCN)C(=O)N[C@@H](C)C(=O)N[C@@H](CC(C)C)C(=O)N[C@@H](C)C(=O)N[C@@H](C)C(=O)N[C@@H](CC(C)C)C(=O)N[C@@H](C)C(=O)N[C@@H](CCCCN)C(=O)N[C@@H](CCCCN)C(=O)N[C@H](C(=O)N[C@@H](CC(C)C)C(N)=O)[C@@H](C)CC) [guanidylated mastoparan analog]
IC50 (HeLa cells [1]): 13 µM

CC[C@@H](C)[C@@H](NC(=O)[C@@H](CCCCN)NC(=O)[C@@H](CCCCN)NC(=O)[C@@H](CC(C)C)NC(=O)[C@@H](CCCCN)NC(=O)[C@@H](CCC(=O)O)NC(=O)[C@@H](CCCCN)NC(=O)[C@H](NC(=O)[C@@H](CCCCN)NC(=O)[C@@H](CC(N)=O)NC(=O)[C@@H](CCCNC(=N)N)NC(=O)[C@@H](Cc1ccccc1)NC(=O)[C@@H](CCCCN)NC(=O)[C@@H](CCCNC(=N)N)NC(=O)[C@@H](CC(C)C)NC(=O)[C@@H](CCCNC(=N)N)NC(=O)[C@@H](CCCCN)NC(=O)[C@@H](CCCNC(=N)N)NC(=O)[C@@H](CC(C)C)NC(=O)CN)[C@H](C)CC)C(=O)NCC(=O)N[C@H](CCC(N)=O)C(=O)N[C@H](CCCCN)C(=O)N[C@@H](C(=O)N[C@H](CCC(N)=O)C(=O)NCC(=O)N[C@H](CC(C)C)C(=O)N[C@H](CC(C)C)C(=O)N1CCC[C@@H]1C(=O)N[C@H](CCCCN)C(=O)N[C@H](CC(C)C)C(=O)N[C@H](C)C(=O)N1CCC[C@@H]1C(=O)N[C@H](CCCNC(=N)N)C(=O)N[C@@H](C(=O)N[C@H](CC(=O)O)C(=O)N[C@H](Cc1ccc(O)cc1)C(=O)O)[C@H](C)O)[C@H](C)CC [D-CAP-18, Glrkrlrkfrnkikeklkkigqkiqgllpklaprtdy] (H-G[dL][dR][dK][dR][dL][dR][dK][dF][dR][dN][dK][dI][dK][dE][dK][dL][dK][dK][dI]G[dQ][dK][dI][dQ]G[dL][dL][dP][dK][dL][dA][dP][dR][dT][dD][dY]-OH)
IC50 (HeLa cells [2]): 2.11 µM | IC50 (A549 cells): 2.09 µM | IC50 (human erythrocytes): 62 µM | mice final weight (median ± SD) [3]: 18.9 ± 0.30 grams | dermal responses and body weight loss [3]: no dermal responses, including erythema/oedema, nor body weight loss were observed | indicative signs of acute toxicity [3]: None of the 11 indicative signs of acute toxicity were observed | MIC50 [5]: 1 µg/mL (≈ 0.226 µM) | MIC90 [5]: 2 µg/mL (≈ 0.451 µM) | MIC ([8]; Strain 121007): 2 µg/mL

CC[C@@H](C)[C@@H](NC(=O)CNC(=O)[C@@H](CCC(N)=O)NC(=O)[C@@H](CCCCN)NC(=O)[C@H](NC(=O)[C@@H](CCC(N)=O)NC(=O)CNC(=O)[C@@H](CC(C)C)NC(=O)[C@@H](CC(C)C)NC(=O)[C@H]1CCCN1C(=O)[C@@H](CCCCN)NC(=O)[C@@H](CC(C)C)NC(=O)[C@@H](C)NC(=O)[C@H]1CCCN1C(=O)[C@@H](CCCNC(=N)N)NC(=O)[C@H](NC(=O)[C@@H](CC(=O)O)NC(=O)[C@H](N)Cc1ccc(O)cc1)[C@H](C)O)[C@H](C)CC)C(=O)N[C@H](CCCCN)C(=O)N[C@H](CCCCN)C(=O)N[C@H](CC(C)C)C(=O)N[C@H](CCCCN)C(=O)N[C@H](CCC(=O)O)C(=O)N[C@H](CCCCN)C(=O)N[C@@H](C(=O)N[C@H](CCCCN)C(=O)N[C@H](CC(N)=O)C(=O)N[C@H](CCCNC(=N)N)C(=O)N[C@H](Cc1ccccc1)C(=O)N[C@H](CCCCN)C(=O)N[C@H](CCCNC(=N)N)C(=O)N[C@H](CC(C)C)C(=O)N[C@H](CCCNC(=N)N)C(=O)N[C@H](CCCCN)C(=O)N[C@H](CCCNC(=N)N)C(=O)N[C@H](CC(C)C)C(=O)NCC(=O)O)[C@H](C)CC [R-CAP-18, Ydtrpalkpllgqikqgikklkekiknrfkrlrkrlg] (H-[dY][dD][dT][dR][dP][dA][dL][dK][dP][dL][dL]G[dQ][dI][dK][dQ]G[dI][dK][dK][dL][dK][dE][dK][dI][dK][dN][dR][dF][dK][dR][dL][dR][dK][dR][dL]G-OH)
MIC ([4]; Strain ATCC 121110): 32 µg/mL | MIC [4, 9]: 7.2 µM | MIC ([8]; Strain 121007): 2 µg/mL | MIC [8, 10]: 0.4 µM

CC[C@@H](C)[C@@H](NC(=O)CNC(=O)[C@@H](CCC(N)=O)NC(=O)[C@@H](CCCCN)NC(=O)[C@H](NC(=O)[C@@H](CCC(N)=O)NC(=O)CNC(=O)[C@@H](CC(C)C)NC(=O)[C@@H](CC(C)C)NC(=O)[C@H]1CCCN1C(=O)[C@@H](CCCCN)NC(=O)[C@H](N)CC(C)C)[C@H](C)CC)C(=O)N[C@H](CCCCN)C(=O)N[C@H](CCCCN)C(=O)N[C@H](CC(C)C)C(=O)N[C@H](CCCCN)C(=O)N[C@H](CCC(=O)O)C(=O)N[C@H](CCCCN)C(=O)N[C@@H](C(=O)N[C@H](CCCCN)C(=O)N[C@H](CC(N)=O)C(=O)N[C@H](CCCNC(=N)N)C(=O)N[C@H](Cc1ccccc1)C(=O)N[C@H](CCCCN)C(=O)N[C@H](CCCNC(=N)N)C(=O)N[C@H](CC(C)C)C(=O)N[C@H](CCCNC(=N)N)C(=O)N[C@H](CCCCN)C(=O)N[C@H](CCCNC(=N)N)C(=O)N[C@H](CC(C)C)C(=O)NCC(=O)O)[C@H](C)CC [R-CAP-18_31, Lkpllgqikqgikklkekiknrfkrlrkrlg] (H-[dL][dK][dP][dL][dL]G[dQ][dI][dK][dQ]G[dI][dK][dK][dL][dK][dE][dK][dI][dK][dN][dR][dF][dK][dR][dL][dR][dK][dR][dL]G-OH)
MIC ([4]; Strain ATCC 121110): 4 µg/mL | MIC [4, 9]: 1.1 µM | MIC ([8]; Strain 121007): 0.5 µg/mL | MIC [8, 10]: 0.1 µM

H-FRNKIKEKLKKIGQKIQGLLPKL-OH [CAP-18_23]
MIC ([4]; ATCC 121110): > 32 µg/mL | MIC [4, 9]: > 12 µM | MIC ([8]; Strain 121007): > 64 µg/mL | MIC [8, 10]: > 24 µM

— publication PMC12382740, “In Vitro and In Vivo Characterization of Novel Cathelicidin-Based Peptides with Antimicrobial Activity Against Pseudomonas aeruginosa” (Antibiotics, 2025)
